Earlier results on three compounds are cited in patent US20030040459A1, “Cleaning compositions” (Unilever Home & Pesonal Care USA, priority 2001, published 2003).

For the data set the following is noted: for Water Solubility (g/100 g): at 20° C.

As for `O=BO[O-].[Na+]` [Sodium perborate anhydrous], the “Water Solubility (g/100 g)” value is 3.7 g/100 g. On to `O=P(O)(O)OP(=O)(O)OP(=O)(O)O` [Sodium tripolyphosphate anhydrous], for which the “Water Solubility (g/100 g)” value is 15 g/100 g. For `NC(N)=O` [Urea], the “Water Solubility (grams/100 grams water)” value (grams of solid to form a saturated solution in 100 grams of deionised water at 20° C.) is listed as greater than 100 grams/100 grams water.
